Experimental data reported in ChEMBL document CHEMBL5143629, “Synthesis and evaluation of dual fatty acid amide hydrolase-monoacylglycerol lipase inhibition and antinociceptive activities of 4-methylsulfonylaniline-derived semicarbazones” (Bioorg Med Chem, 2022).

What was measured:
[1] = molecular target: T1, Fatty-acid amide hydrolase 1 (Homo sapiens, UniProt O00519); experiment: Inhibition of human recombinant FAAH using arachidonoyl as substrate preincubated for 5 mins followed by substrate addition by fluorescence based assay
T1 sequence (O00519 whole entry): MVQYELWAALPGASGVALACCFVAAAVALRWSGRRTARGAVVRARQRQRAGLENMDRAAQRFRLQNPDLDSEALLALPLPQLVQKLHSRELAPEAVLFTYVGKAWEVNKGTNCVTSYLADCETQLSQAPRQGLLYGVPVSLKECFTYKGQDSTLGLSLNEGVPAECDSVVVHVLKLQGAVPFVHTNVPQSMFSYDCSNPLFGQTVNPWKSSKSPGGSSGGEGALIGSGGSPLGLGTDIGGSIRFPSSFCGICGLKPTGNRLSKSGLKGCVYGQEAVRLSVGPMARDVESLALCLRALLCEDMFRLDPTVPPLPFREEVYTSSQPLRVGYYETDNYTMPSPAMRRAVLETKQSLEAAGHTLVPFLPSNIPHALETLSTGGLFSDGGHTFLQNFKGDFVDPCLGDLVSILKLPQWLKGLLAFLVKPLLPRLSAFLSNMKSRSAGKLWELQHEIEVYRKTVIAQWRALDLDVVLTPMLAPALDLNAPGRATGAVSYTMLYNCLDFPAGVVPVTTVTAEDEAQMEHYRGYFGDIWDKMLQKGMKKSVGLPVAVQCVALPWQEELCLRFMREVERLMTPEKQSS

[2] = Permeability of the compound across blood brain barrier incubated for 18 hrs by UV plate reader based PAMPA assay; format: ADME, tissue-based; settings: read-out: permeability
[3] = molecular target: T1, Fatty-acid amide hydrolase 1; experiment: Inhibition of recombinant human FAAH incubated for 5 mins followed by substrate addition by cayman fluorescence based multimode microplate reader assay

For `CS(=O)(=O)c1ccc(NC(=O)N/N=C2/C(=O)Nc3ccccc32)cc1`, the IC50 [1] was 34 nM.

Work on `CS(=O)(=O)c1ccc(NC(=O)N/N=C\c2ccc(Cl)cc2Cl)cc1` yielded an IC50 [1] of 19 nM.

With `C/C(=N/NC(=O)Nc1ccc(S(C)(=O)=O)cc1)c1ccc(Cl)cc1` the IC50 [1] was 340 nM.

For `CC(=O)[C@H]1CC[C@H]2[C@@H]3CCC4=CC(=O)CC[C@]4(C)[C@H]3CC[C@]12C` [PROGESTERONE], the Papp at 18 h [2] was 12.2 ×10⁻⁶ cm/s.

Molecule `O=C(Oc1ccc([N+](=O)[O-])cc1)N1CCN(Cc2cccc(Oc3ccccc3)c2)CC1` has an IC50 [3] of 2 nM.

`C=CCN1C(=O)/C(=N/NC(=O)Nc2ccc(S(C)(=O)=O)cc2)c2cc(Cl)ccc21` showed an IC50 [1] of 120 nM.

`CS(=O)(=O)c1ccc(NC(=O)N/N=C\c2ccccc2Cl)cc1` gave an IC50 [1] of 1870 nM.
